The values below come from PubChem BioAssay (NCI).

Molecules are shown by their SMILES.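 In this assay, cells in 96-well plates receive the compound at five concentrations for 48 hours. Endpoints are linearly interpolated between the surrounding concentrations. GI50: concentration for 50% inhibition of growth. TGI: concentration producing complete growth inhibition.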 Some results are limits rather than exact numbers.

Common to all, as to assay: NCI tumour cell line growth inhibition, 48 h
The test system of assay [1] is HCT-15 colon.
For assay [2], the system named is HT29 colon.
Assay [3] relates to KM12 colon.
Assay [4] deals with SK-MEL-28 melanoma.
Assay [5] relates to CAKI-1 renal.
In assay [6] the test system is HL-60(TB) leukemia.
Assay [7] deals with IGROV1 ovarian.
In assay [8] the test system is SF-539 CNS.
The subject of assay [9] is U251 CNS.

For the molecule `COc1ccc2c(c1)c(-c1nc(-c3cn(C)c4ncccc34)cs1)cn2CCCCN1CCCCC1`, the GI50 was 1.45 µM in [1], 1.59 µM in assay [2], 1.7 µM in [3] and 1.74 µM in assay [4]. Further, the TGI in [1] amounted to 2.8 µM; in assay [2], 3.03 µM; in assay [3], 3.15 µM; in [4], 3.16 µM.
Turning to `CCn1c(O)c(C(=O)Nc2cccs2)c(=O)n(CC)c1=S`, the TGI in assay [5] came out at 75.9 µM; in [1] it was 41.7 µM; in [6], 40 µM; in assay [2] it was 31.9 µM; in assay [7], 60.9 µM; in [3] it was 32.6 µM. Besides, the TGI in assay [8] was 33.1 µM; in assay [4] it was 32.2 µM; in [9], 25.9 µM.
As to `Cc1c(Cl)ccc2[s+]snc12`, the TGI in [5] is greater than 100 µM; in assay [1] it was greater than 100 µM; in [6], 43.7 µM; in assay [2], greater than 100 µM; in assay [7] it was greater than 100 µM; in assay [3], greater than 100 µM. Moreover, the values for the TGI in [8], in assay [4] and in [9] were 44.6 µM, greater than 100 µM and 70.2 µM, respectively.
Consider `Cc1cc2c(=O)cc(-c3ccncc3)oc2c(C(N)=O)c1C`, for which the TGI in assay [1], in assay [6], in [2], in assay [7], in assay [8] and in assay [4] was greater than 100 µM in each case. In assay [9], this molecule returned a TGI greater than 100 µM.
Consider `O=C(NC(=Nc1ccccc1)SCCSC(=Nc1ccccc1)NC(=O)c1ccccc1)c1ccccc1`, for which the TGI in assay [5], in assay [1], in assay [2], in assay [7], in assay [3] and in assay [8] was greater than 100 µM throughout. In addition, the TGI in assay [4] and in [9] was greater than 100 µM throughout.
As to `CC(=O)Nc1ccc(/C=C/C(=O)c2sc(-n3nc(-c4ccccc4)cc3-c3ccccc3)nc2C)cc1`, the GI50 in [5], in [6], in [7], in [8], in assay [4] and in assay [9] was greater than 100 µM in each case. Moreover, the TGI in [5], in [6], in [2], in assay [7], in assay [3] and in assay [8] was greater than 100 µM in each case. For the same molecule, the TGI in assay [4] and in assay [9] was greater than 100 µM in each case.
Regarding `O=C(c1ccccc1)N1CCc2c([nH]c3ccccc23)C1`, the TGI in [5] was 86.4 µM; in [1] it was greater than 100 µM; in assay [6], 43.1 µM; in assay [2], greater than 100 µM; in assay [7] it was greater than 100 µM; in assay [3] it was greater than 100 µM. Also, the TGI in assay [8], in [4] and in [9] was greater than 100 µM in each case.
Consider `COc1cc(/C=C(\C#N)C(=O)c2ccccc2)cc(OC)c1OC`, for which the TGI in [5], in [1], in assay [6], in [2], in assay [3] and in assay [8] was greater than 100 µM each time. Besides, the TGI in assay [4] and in assay [9] was greater than 100 µM each time.
In the case of `COC(=O)N1C=Cc2c(c(C)c3c([nH]c4ccccc43)c2C)C1C` (stereo unspecified), the TGI in assay [5] amounted to 34.5 µM; in assay [1], 26.4 µM; in assay [6] it was 52 µM; in [2] it was 26.5 µM; in [7], 48.7 µM; in assay [8] it was 35.3 µM. Besides, the TGI in assay [4] is 31.1 µM; in [9], 30.4 µM.
As for `CCCCCCCCCCCCCCCCCCCCCCC(=O)N[C@H]1CCc2cc(OC)c(OC)c(OC)c2-c2ccc(SC)c(=O)cc21`, the TGI is greater than 100 µM in assay [5]; 71 µM in assay [1]; 48.9 µM in assay [6]; 99 µM in [2]; greater than 100 µM in assay [7]; greater than 100 µM in assay [3]. Besides, the values for the TGI in [8], in assay [4] and in assay [9] were 41.3 µM, greater than 100 µM and 53.2 µM, respectively.
Take `O=C(Nc1cc(Cl)ccc1Cl)c1cc2ccccc2oc1=O`: the TGI in assay [1], in assay [6], in assay [2], in [7], in assay [3] and in assay [8] was greater than 100 µM throughout. The TGI in assay [4] and in assay [9] was greater than 100 µM each time.
In the case of `O=c1ccn([C@@H]2C[C@H](CO)CS(=O)C2)c(=O)[nH]1` (stereo partly specified), the TGI in [5], in assay [1], in assay [6], in assay [2], in assay [7] and in [3] was greater than 100 µM in each case. The TGI in assay [8], in [4] and in [9] was greater than 100 µM throughout.
Regarding `CCC[CH2][Sn]1([CH2]CCC)[O]C(=O)c2cccnc2[S]1`, the GI50 was 1.76 µM in assay [5]; 2.21 µM in assay [1]; 1.42 µM in [6]; 11.1 µM in assay [2]; 11.2 µM in assay [7]; 6.92 µM in assay [3]. The GI50 is 3.17 µM in [8], 2.7 µM in [4] and 1.21 µM in assay [9]. Further, the TGI in assay [5] worked out at 8.05 µM; in assay [1], 4.98 µM; in assay [6], 3.31 µM; in assay [2], 24.7 µM; in assay [7] it was 23.5 µM; in assay [3], 19.6 µM. In addition, the TGI in assay [8] is 8.39 µM; in [4] it was 10.6 µM; in assay [9], 5.33 µM.
Consider `O=C(CC1(O)C(=O)Nc2ccc(Br)cc21)c1cccc([N+](=O)[O-])c1` (stereo unspecified), for which the TGI in assay [5] was greater than 100 µM; in assay [1] it was greater than 100 µM; in assay [6], 67.3 µM; in [2], greater than 100 µM; in assay [3] it was greater than 100 µM; in assay [4], greater than 100 µM. In assay [9], this molecule had a TGI greater than 100 µM.
For the molecule `BrC(/C=N/Nc1nnc(-c2ccccc2)c(-c2ccccc2)n1)C(Br)c1ccccc1` (stereo unspecified), the TGI in assay [5] is greater than 100 µM; in [1], greater than 100 µM; in [6] it was 79.5 µM; in assay [2], greater than 100 µM; in [7] it was greater than 100 µM; in assay [3], greater than 100 µM. The TGI in assay [8], in [4] and in [9] was greater than 100 µM in each case.
As to `CCCCP1(=O)C=CC(Cl)=C(C)C1` (stereo unspecified), the TGI in [1], in assay [6], in [2], in assay [7], in [3] and in assay [8] was greater than 100 µM each time. In addition, the TGI in assay [4] and in assay [9] was greater than 100 µM each time.
Regarding `Cc1nc2ccccc2c(=O)n1/N=C(\N=Nc1ccc(Cl)cc1)c1ccc(N(C)C)cc1`, the TGI in assay [5], in assay [1], in [2], in assay [7], in assay [8] and in assay [4] was greater than 100 µM each time.
Consider `O=C1C(=C2C(=O)c3ccccc3[N+]2=O)N([O-])c2ccccc21`, for which the TGI in assay [6] is 48.5 µM; in [2], 94.1 µM; in [7], greater than 100 µM; in assay [8] it was 47.7 µM; in assay [4] it was greater than 100 µM; in assay [9], 53.9 µM.
As to `COc1ccc(Cc2c3cc(OC)c(OC)cc3cc[n+]2C)cc1`, the TGI was greater than 61.7 µM in assay [5]; greater than 52.8 µM in assay [1]; greater than 100 µM in assay [6]; greater than 27.1 µM in assay [2]; greater than 69.4 µM in assay [7]; greater than 23 µM in assay [3]. The TGI is greater than 53.1 µM in assay [8], greater than 58.6 µM in [4] and greater than 73.1 µM in assay [9].
Consider `N#CC1(C2CC(=O)N(c3ccccc3)C2=O)CCCCC1=O` (stereo unspecified), for which the TGI in assay [1], in [6], in [2], in assay [7], in assay [3] and in [8] was greater than 100 µM each time. Also, the TGI in [4] and in [9] was greater than 100 µM in each case.
With `CC[C@H]1CNC(=O)CC1CC(=O)OC` (stereo partly specified), the TGI in assay [5], in [1], in assay [2], in assay [7], in assay [3] and in assay [8] was greater than 100 µM each time. For the same molecule, the TGI in assay [4] and in [9] was greater than 100 µM throughout.
As for `C#CC[C@]12CC(=O)CC[C@H]1CC1(C2)OCCO1`, the TGI in [5], in assay [1], in assay [6], in assay [7], in [3] and in [8] was greater than 100 µM in each case. The TGI in assay [4] and in assay [9] was greater than 100 µM in each case.
As to `CC(=O)NNc1nc(C)c(C(=O)NNC(=O)C(=O)Nc2ccc(C)cc2[N+](=O)[O-])s1`, the TGI in [5], in assay [1], in assay [6], in [2], in assay [7] and in [3] was greater than 100 µM in each case. Moreover, the TGI in assay [8], in [4] and in [9] was greater than 100 µM in each case.
For the molecule `Cc1cc(Br)ccc1N=NC1C(=O)ON=C1c1ccccc1` (stereo unspecified), the TGI in assay [6], in assay [2], in assay [7], in assay [3], in [8] and in [4] was greater than 100 µM in each case. In [9], this molecule displayed a TGI greater than 100 µM.
Consider `CC1(C)OC2OC(/C=C/[N+](=O)[O-])C3OC(C)(C)OC3C2O1` (stereo unspecified), for which the TGI in assay [5] is 14.3 µM; in assay [1], 5.43 µM; in [6], 10.8 µM; in assay [2], 40.1 µM; in assay [7] it was greater than 74.4 µM; in assay [3], 31.5 µM. The TGI in [8] was 28.3 µM; in assay [4], 32.9 µM; in assay [9] it was 32.7 µM.
With `CC1CC(=O)C(CC(=O)O)[C@H]1C(C(=O)C(=O)Nc1cc(Cl)ccc1Cl)[N+](=O)[O-]` (stereo partly specified), the TGI in assay [5], in assay [1], in [6], in assay [2], in [7] and in [3] was greater than 100 µM in each case. Moreover, the TGI in [8], in assay [4] and in [9] was greater than 100 µM in each case.
`CCn1nc(C#Cc2c(C)ccc3c(Nc4ccc(Cl)cc4)nccc23)c2c(N)ncnc21`: the GI50 in [5] is 4.78 µM; in assay [1], 3.46 µM; in assay [6] it was 0.598 µM; in assay [2], 2.32 µM; in assay [7], 3.09 µM; in [3] it was 3.79 µM. In addition, the GI50 is 3.36 µM in assay [4] and 4.43 µM in assay [9]. Besides, the TGI in assay [5], in [1], in [6], in [2], in assay [7] and in assay [3] was greater than 100 µM throughout. Besides, the TGI in assay [4] and in assay [9] was greater than 100 µM in each case.
For the molecule `C[C@H](O)CCC(=O)c1ccoc1`, the TGI in assay [5], in assay [1], in assay [6], in assay [2], in [7] and in [3] was greater than 100 µM in each case. Besides, the TGI in assay [8], in [4] and in assay [9] was greater than 100 µM in each case.
On to `CCc1cccc(CC)c1NC1=CC(=O)C(=O)c2ccccc21`, for which the TGI in assay [5] is 44.3 µM; in assay [1], 57.7 µM; in assay [6], greater than 100 µM; in assay [2], 3.95 µM; in [7], 28.9 µM; in [3], 33.2 µM. The TGI in [8] came out at 35.4 µM; in assay [4] it was 37.4 µM; in assay [9], 36.6 µM.
